# Where a name gives a salt, the structure may show the parent alone.
# System: IL-1β secretion, THP-1 cells
# Assay: IL-1β secretion assay in PMA-differentiated THP-1 cells stimulated with LPS and nigericin (ELISA readout)
# Format: cell-based
# Details: Homo sapiens, THP-1, inhibition of IL-1β secretion, 25 ng/mL LPS then nigericin
# Procedure, shortened: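 THP-1 cells differentiated with 5 ng/mL PMA for 40 h, primed in serum-free medium with 25 ng/mL LPS for 2 h, then compound (0.5% DMSO) for 1 h before nigericin for 2 h at 37°C. Supernatant IL-1β quantified by ELISA; normalized to high (LPS + 5 µM nigericin) and low (LPS only) controls.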
Compound,IC50 (class column of Table 3) [µM],IC50 (numeric column of Table 3) [µM]
"O=C(Cn1nc(OC2CCC2)c2cc(Br)ccc2c1=O)Nc1ncc(F)cn1 [Example 153, 2-(6-bromo-4-cyclobutyloxy-1-oxophthalazin-2-yl)-N-(5-fluoropyrimidin-2-yl)acetamide]",< 10,0.147
"CCOc1nn(CC(=O)Nc2ncc(F)cn2)c(=O)c2ccc(Br)cc12 [Example 154, 2-(6-bromo-4-ethoxy-1-oxophthalazin-2-yl)-N-(5-fluoropyrimidin-2-yl)acetamide]",< 10,0.68
"CC(C)Oc1nn(CC(=O)Nc2ncc(F)cn2)c(=O)c2ccc(Br)cc12 [Example 155, 2-(6-bromo-1-oxo-4-propan-2-yloxyphthalazin-2-yl)-N-(5-fluoropyrimidin-2-yl)acetamide]",< 10,5.95
"CC1(C)CC(Oc2nn(CC(=O)Nc3ncc(F)cn3)c(=O)c3ccc(Br)cc23)C1 [Example 156, 2-[6-bromo-4-(3,3-dimethylcyclobutoxy)-1-oxo-phthalazin-2-yl]-N-(5-fluoropyrimidin-2-yl)acetamide]",< 10,0.07
"C[C@H]1C[C@@H](Oc2nn(CC(=O)Nc3ncc(F)cn3)c(=O)c3ccc(Br)cc23)C1 [Example 157, 2-[6-bromo-4-(3-cis-methylcyclobutoxy)-1-oxo-phthalazin-2-yl]-N-(5-fluoropyrimidin-2-yl)acetamide]",< 10,0.139
"C[C@H]1C[C@H](Oc2nn(CC(=O)Nc3ncc(F)cn3)c(=O)c3ccc(Br)cc23)C1 [Example 158, 2-[6-bromo-4-(3-trans-methylcyclobutoxy)-1-oxo-phthalazin-2-yl]-N-(5-fluoropyrimidin-2-yl)acetamide]",< 10,0.309
"CCN1CCOCC(NC(=O)Cn2nc(C(C)C)c3cc(Br)ccc3c2=O)C1 (centres unmarked) [Example 159, 2-(6-bromo-1-oxo-4-propan-2-ylphthalazin-2-yl)-N-(4-ethyl-1,4-oxazepan-6-yl)acetamide]",< 10,4.76
CO[C@H]1C[C@H](Oc2nn(CC(=O)Nc3ncc(F)cn3)c(=O)c3ccc(Br)cc23)C1 [Example 160],< 10,1.32
O=C(Cn1nc(OC2COC2)c2cc(Br)ccc2c1=O)Nc1ncc(F)cn1 [Example 161],< 10,3.63
CC(F)COc1nn(CC(=O)Nc2ncc(F)cn2)c(=O)c2ccc(Br)cc12 (centres unmarked) [Example 162],< 10,0.455
COCCOc1nn(CC(=O)Nc2ncc(F)cn2)c(=O)c2ccc(Br)cc12 [Example 163],< 10,3.77
"O=C(Cn1nc(C2CC2)c2cc(Br)ccc2c1=O)Nc1ncc(F)cn1 [Example 164, 2-(6-bromo-4-cyclopropyl-1-oxophthalazin-2-yl)-N-(5-fluoropyrimidin-2-yl)acetamide]",< 10,0.149
"O=C(Cn1nc([C@H]2C[C@@H]2F)c2cc(Br)ccc2c1=O)Nc1ncc(F)cn1 [Example 167, 2-[6-bromo-4-[2-trans-fluorocyclopropyl]-1-oxophthalazin-2-yl]-N-(5-fluoropyrimidin-2-yl)acetamide]",> 15,16.1
"O=C(Cn1nc(OC(F)C2CC2)c2cc(Br)ccc2c1=O)Nc1ncc(F)cn1 (centres unmarked) [Example 168, 2-[6-bromo-4-[cyclopropyl(fluoro)methoxy]-1-oxophthalazin-2-yl]-N-(5-fluoropyrimidin-2-yl)acetamide]",> 15,17.1
CC(Oc1nn(CC(=O)Nc2ncc(F)cn2)c(=O)c2ccc(Br)cc12)C1CC1 (centres unmarked) [Example 169],< 10,2.29
"O=C(Cn1nc(OC2CN(CC(F)(F)F)C2)c2cc(Br)ccc2c1=O)Nc1ncc(F)cn1 [Example 170, 2-[6-bromo-1-oxo-4-[1-(2,2,2-trifluoroethyl)azetidin-3-yl]oxyphthalazin-2-yl]-N-(5-fluoropyrimidin-2-yl)acetamide]",< 10,0.493

Compound,IC50 (class column of Table 3) [µM],IC50 (numeric column of Table 3) [µM]
"N#C[C@H]1C[C@@H](Oc2nn(CC(=O)Nc3ncc(F)cn3)c(=O)c3ccc(Br)cc23)C1 [Example 171, 2-[6-bromo-4-(3-cis-cyanocyclobutyl)oxy-1-oxophthalazin-2-yl]-N-(5-fluoropyrimidin-2-yl)acetamide]",< 10,5.85
"CO[C@H]1C[C@@H](Oc2nn(CC(=O)Nc3ncc(F)cn3)c(=O)c3ccc(Br)cc23)C1 [Example 172, 2-[6-bromo-4-(3-cis-methoxycyclobutyl)oxy-1-oxophthalazin-2-yl]-N-(5-fluoropyrimidin-2-yl)acetamide]",< 10,0.403
"O=C(Cn1nc(OC2CC2)c2cc(C3CC3)ccc2c1=O)Nc1ncc(F)cn1 [Example 173, 2-(6-cyclopropyl-4-cyclopropyloxy-1-oxophthalazin-2-yl)-N-(5-fluoropyrimidin-2-yl)acetamide]",< 10,0.12
"O=C(Cn1nc(OC2CC2)c2cc(C(F)(F)F)ccc2c1=O)Nc1ncc(F)cn1 [Example 174, 2-(4-cyclopropoxy-1-oxo-6-(trifluoromethyl)phthalazin-2(1H)-yl)-N-(5-fluoropyrimidin-2-yl)acetamide]",< 10,0.515
"CC(C)(C)OC(=O)N1CCC[C@@H](NC(=O)Cn2nc(OC3CC3)c3cc(Br)ccc3c2=O)C1 [Example 175, tert-butyl (3R)-3-[[2-(6-bromo-4-cyclopropyloxy-1-oxophthalazin-2-yl)acetyl]amino]piperidine-1-carboxylate]",< 10,8.65
"O=C(Cn1nc(OC2CC2)c2cc(Br)ccc2c1=O)N[C@@H]1CCCNC1 [Example 176, 2-(6-bromo-4-cyclopropyloxy-1-oxophthalazin-2-yl)-N-[(3R)-piperidin-3-yl]acetamide HCl salt]",< 10,4.27
O=C(Cn1nc(OC2CC2)c2cc(Br)ccc2c1=O)N[C@@H]1CCCN(C2CCC2)C1 [Example 177],< 10,0.213
O=C(Cn1nc(OC2CC2)c2cc(Br)ccc2c1=O)N[C@@H]1CCCN(C2CC2)C1 [Example 178],< 10,0.14
"O=C(Cn1nc(C(F)F)c2cc(Br)ccc2c1=S)Nc1ncc(F)cn1 [Example 179, 2-[6-bromo-4-(difluoromethyl)-1-thioxophthalazin-2-yl]-N-(5-fluoropyrimidin-2-yl)acetamide]",< 10,0.486
"CN(C)c1ccc2c(=O)n(CC(=O)Nc3ncc(F)cn3)nc(Br)c2c1 [Example 180, 2-[4-bromo-6-(dimethylamino)-1-oxophthalazin-2-yl]-N-(5-fluoropyrimidin-2-yl)acetamide]",< 10,4.86
"O=C(Cn1nc(Br)c2cc(Br)ccc2c1=O)Nc1ncc(F)cn1 [Example 181, 2-(4,6-Dibromo-1-Oxophthalazin-2-yl)-N-(5-Fluoropyrimidin-2-yl)Acetamide]",< 10,0.23
O=C(Cn1nc(C(F)F)c2c(F)c(Br)ccc2c1=O)Nc1ncc(Cl)cn1 [Example 182],< 10,0.068
"CCN1CCCC(NC(=O)Cn2nc(C(F)F)c3c(F)c(Br)ccc3c2=O)C1 (centres unmarked) [Example 183, 2-[6-bromo-4-(difluoromethyl)-5-fluoro-1-oxophthalazin-2-yl]-N-(1-ethylpiperidin-3-yl)acetamide]",< 10,0.485
"O=C(Cn1nc(C(F)F)c2c(F)c(C3CC3)ccc2c1=O)Nc1ncc(F)cn1 [Example 184, 2-[6-cyclopropyl-4-(difluoromethyl)-5-fluoro-1-oxophthalazin-2-yl]-N-(5-fluoropyrimidin-2-yl)acetamide]",< 10,0.179
"O=C(Cn1nc(C(F)F)c2c(F)c(C3CCC3)ccc2c1=O)Nc1ncc(F)cn1 [Example 185, 2-[6-cyclobutyl-4-(difluoromethyl)-5-fluoro-1-oxophthalazin-2-yl]-N-(5-fluoropyrimidin-2-yl)acetamide]",< 10,2.09

# From patent US20230357162A1, “COMPOUNDS, COMPOSITIONS AND METHODS” (Denali Therapeutics Inc., priority 2020, published 2023)
